The record followed here is patent US6410792B1, “Amide derivatives and methods for using the same as selective neuropeptide Y receptor antagonists” (Bayer Corporation, priority 1997, dated 2002).

Structures can show the parent of a compound that is named as a salt. Bounds are passed on as bounds.

One assay addresses T1, Rat NPY5 receptor (Rattus norvegicus, UniProt Q63634).
T1 sequence (Q63634 1-445): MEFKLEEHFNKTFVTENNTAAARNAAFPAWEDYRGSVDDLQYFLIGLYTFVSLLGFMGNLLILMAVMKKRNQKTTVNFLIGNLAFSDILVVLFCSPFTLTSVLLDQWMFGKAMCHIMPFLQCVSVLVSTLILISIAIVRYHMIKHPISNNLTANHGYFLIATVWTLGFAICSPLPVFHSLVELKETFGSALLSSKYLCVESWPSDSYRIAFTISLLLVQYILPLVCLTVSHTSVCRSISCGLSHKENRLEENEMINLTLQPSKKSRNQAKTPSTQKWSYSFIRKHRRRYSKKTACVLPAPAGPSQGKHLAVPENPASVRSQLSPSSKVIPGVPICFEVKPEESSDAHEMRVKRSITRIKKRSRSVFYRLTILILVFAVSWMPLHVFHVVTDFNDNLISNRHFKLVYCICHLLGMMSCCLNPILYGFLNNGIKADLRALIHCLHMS
Description: Rat NPY5 receptor binding assay ([125I]PYY, membrane protein). Particulars: [125I]PYY, read-out: rNPY5 IC50. The method, then:
C. Human and Rat NPY5 Receptor Binding Assays
Binding assays are performed on GF/C Millipore 96well plates pretreated with 0.02% polyethylenimine. The binding buffer is 25 mM Tris, 120 mM NaCl, 5 mM KCl, 1.2 mM KH2PO4, 2.5 mM CaCl2, 1.2 mM MgSO4, 0.1% BSA and 0.5 mg/ml bacitracin, pH 7.4. Samples consist of membrane protein, 75-100 pM [125I]PYY (porcine, NEN-DuPont) and drug dilution. Nonspecific binding is defined by 1 μM PYY. After a 2 hour incubation at room temperature with constant mixing, the samples are aspirated on a vacuum manifold, and rinsed with ice-cold binding buffer. The amount of radioactivity in each well is quantitated with either gamma counting or liquid scintillation.

The next assay addresses T2, Human NPY1 receptor (Homo sapiens, UniProt P25929).
T2 construct: host or cells: SK-N-MC cells
T2 sequence (P25929 1-384): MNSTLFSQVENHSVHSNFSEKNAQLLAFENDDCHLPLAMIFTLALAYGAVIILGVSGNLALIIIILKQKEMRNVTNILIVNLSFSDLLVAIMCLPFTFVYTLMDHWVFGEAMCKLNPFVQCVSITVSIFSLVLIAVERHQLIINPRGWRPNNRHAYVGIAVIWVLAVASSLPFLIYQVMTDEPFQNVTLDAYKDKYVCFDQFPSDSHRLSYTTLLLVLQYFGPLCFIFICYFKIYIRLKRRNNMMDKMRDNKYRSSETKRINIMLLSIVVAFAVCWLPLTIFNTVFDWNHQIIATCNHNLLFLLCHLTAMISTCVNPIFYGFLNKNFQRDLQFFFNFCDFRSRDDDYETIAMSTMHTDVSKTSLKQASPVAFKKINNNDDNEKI
Description: Human NPY1 receptor binding assay ([125I]PYY, SK-N-MC cells). Particulars: [125I]PYY, SK-N-MC cells; read-out: hNPYI IC50. The method, then:
A. Human NPY1 Receptor Binding Assay
This is a modification of Gordon et al., (J. Neurochem. 55:506-513, 1990). SK-N-MC cell (ATCC, Rockville, Md.) were plated in 24-well plates. Once confluent, cells were rinsed with Dulbecco's phosphate buffered saline (DPBS). Cells were then preincubated in binding buffer containing serum-free DMEM, 25 mM HEPES (pH 7.3), 0.5% bovine serum albumin (BSA), 0.1% bacitracin and 0.1 mM phenylmethylsulfonylfluoride for 30 minutes at room temperature. Drug dilution and [125I]PYY (˜50 pM: NEN-DuPont) were added to the wells, and the cells were incubated for an additional 3 hours at room temperature, followed by rinsing with ice-cold DPBS. Nonspecific binding was defined with 1 μM NPY. After lysing the cells with 1% Triton X-100, the amount of radioactivity in the lysates was quantitated with a gamma counter.

A further assay has as its target T3, Y2 receptor (Homo sapiens, UniProt P49146).
T3 sequence (P49146 1-381): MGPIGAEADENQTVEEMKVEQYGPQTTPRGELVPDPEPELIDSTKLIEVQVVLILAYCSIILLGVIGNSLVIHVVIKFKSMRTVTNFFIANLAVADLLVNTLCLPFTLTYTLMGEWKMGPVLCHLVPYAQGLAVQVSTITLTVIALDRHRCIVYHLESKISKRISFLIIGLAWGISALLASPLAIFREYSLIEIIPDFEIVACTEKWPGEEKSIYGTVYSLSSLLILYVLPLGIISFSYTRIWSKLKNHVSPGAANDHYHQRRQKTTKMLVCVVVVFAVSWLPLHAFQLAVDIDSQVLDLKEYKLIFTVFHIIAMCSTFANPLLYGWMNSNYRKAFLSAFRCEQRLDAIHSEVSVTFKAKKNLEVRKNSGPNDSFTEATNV
Description: Y2 receptor binding assay ([125I]PYY, membrane protein). Particulars: [125I]PYY, membrane protein; read-out: hNPY2 IC50. A digest of the protocol:
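Filtration binding with membrane protein and drug dilution, 2 h at room temperature with mixing, radioactivity counted by gamma or scintillation. Y2: 25 pM [125I]PYY in Krebs-Ringer bicarbonate pH 7.4 with 0.01% BSA, nonspecific by 1 μM NPY. Y4/PP1: 50 pM [125I]hPP in HEPES-buffered saline pH 7.4 with protease inhibitors and 0.3% BSA, nonspecific by 1 μM hPP.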

For a further assay, the target named is human Y4/PP1 receptor (Homo sapiens, UniProt P50391). Nature of the assay: Human Y4/PP1 receptor binding assay ([125I]human PP, membrane protein). The note with it: [125I]human PP, membrane protein; read-out: hNPY4 IC50. The method, then:
B. Human Y2 and Y4/PP1 Receptor Binding Assays
Binding assays were performed on GF/C Millipore 96-well plates pretreated with 0.02% polyethylenimine. The binding buffer for rat Y2 binding is Krebs-Ringer bicarbonate (pH 7.4) containing 0.01% BSA and 0.005% bacitracin. Samples consist of membrane protein, 25 pM [1251]PYY and drug dilution. Nonspecific binding is defined by 1 μM NPY. The binding buffer for human Y4/PP1 binding consists of 137 mM NaCl, 5.4 mM KCl, 0.44 mM KH2PO4, 1.26 mM CaCl2, 0.81 mM MgSO4, 20 mM HEPES, 1 mM dithiothreitol, 0.1% bacitracin, 100 mg/l streptomycin sulfate, 1 mg/l aprotinin, 10 mg/ml soybean trypsin inhibitor and 0.3% BSA, pH 7.4. Samples consist of membrane protein, 50 pM human [1251]human PP (hPP: NEN DuPont, Boston, Mass.) and drug dilution. 1 μM hPP is used to define nonspecific binding.
After a 2 hour incubation at room temperature with constant mixing, the samples are aspirated on a vacuum manifold, and rinsed with ice-cold binding buffer. The amount of radioactivity in each well is quantitated with either gamma counting or liquid scintillation.

A further assay has as its target T4, Human NPY5 receptor (Homo sapiens, UniProt Q15761).
T4 sequence (Q15761 1-445): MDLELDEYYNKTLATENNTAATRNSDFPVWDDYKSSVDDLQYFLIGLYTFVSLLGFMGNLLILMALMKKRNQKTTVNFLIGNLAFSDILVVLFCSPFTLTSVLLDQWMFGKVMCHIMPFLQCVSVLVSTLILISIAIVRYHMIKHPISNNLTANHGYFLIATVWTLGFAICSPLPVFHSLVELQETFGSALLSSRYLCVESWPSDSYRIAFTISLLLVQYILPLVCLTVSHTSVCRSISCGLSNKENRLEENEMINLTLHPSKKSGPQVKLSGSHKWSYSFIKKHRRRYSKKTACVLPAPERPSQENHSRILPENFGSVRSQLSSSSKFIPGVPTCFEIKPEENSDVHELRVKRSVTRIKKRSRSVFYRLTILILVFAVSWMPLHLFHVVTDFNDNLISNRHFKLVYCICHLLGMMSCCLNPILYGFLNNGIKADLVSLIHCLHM
Description: Human NPY5 receptor binding assay ([125I]PYY, membrane protein). Particulars: [125I]PYY, read-out: hNPY5 IC50. The method in brief:
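Membrane protein was incubated with 75-100 pM porcine [125I]PYY and test compound for 2 hours at room temperature with constant mixing in pH 7.4 Tris buffer containing NaCl, KCl, CaCl2, MgSO4, 0.1% BSA and bacitracin. Nonspecific binding was defined with 1 μM PYY. Bound radioactivity was counted after filtration.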

Sequence of human Y4/PP1 receptor (P50391 whole entry): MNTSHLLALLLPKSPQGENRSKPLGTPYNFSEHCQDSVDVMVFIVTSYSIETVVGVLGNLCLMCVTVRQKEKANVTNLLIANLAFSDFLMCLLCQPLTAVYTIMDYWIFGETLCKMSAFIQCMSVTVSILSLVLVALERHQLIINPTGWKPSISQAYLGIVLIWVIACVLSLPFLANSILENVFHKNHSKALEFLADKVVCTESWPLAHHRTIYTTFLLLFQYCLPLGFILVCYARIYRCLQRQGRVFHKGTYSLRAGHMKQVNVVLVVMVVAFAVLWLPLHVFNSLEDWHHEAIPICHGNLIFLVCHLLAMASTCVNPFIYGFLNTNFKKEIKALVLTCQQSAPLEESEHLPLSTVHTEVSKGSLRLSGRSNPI

Consider `O=C(CN1CCC(n2c(=O)[nH]c3ccccc32)CC1)Nc1ccc2c(c1)Cc1ccccc1-2` [Compound 325, N-(9H-Fluoren-2-yl)-2-[4-(2-oxo-2,3-dihydro-benzoimidazol-1-yl)-piperidin-1-yl]-acetamide], for which the IC50 on Rat NPY5 receptor was 0.004 µM; on Human NPY1 receptor, over 5 µM; at Y2 receptor it was over 5 µM; on human Y4/PP1 receptor, over 5 µM; on Human NPY5 receptor, 0.006 µM.

Consider `O=C(CN1CCC(n2c(=O)[nH]c3ccccc32)CC1)Nc1ccccc1Cl` [Compound 348, N-(2-Chloro-phenyl)-2-[4-(2-oxo-2,3-dihydro-benzoimidazol-1-yl)-piperidin-1-yl]-acetamide, reference compound], for which the IC50 on Rat NPY5 receptor was over 10 µM; at Human NPY1 receptor it was over 5 µM; at Y2 receptor, over 5 µM; on human Y4/PP1 receptor, over 5 µM; on Human NPY5 receptor it was 1.2 µM.

As for `CCOc1ccc(NC(=O)CN2CCC(n3c(=O)[nH]c4ccccc43)CC2)cc1` [Compound 347, N-(4-Ethoxy-phenyl)-2-[4-(2-oxo-2,3-dihydro-benzoimidazol-1-yl)-piperidin-1-yl]-acetamide, reference compound], the IC50 was 0.13 µM at Rat NPY5 receptor; over 5 µM at Human NPY1 receptor; over 5 µM on Y2 receptor; over 5 µM at human Y4/PP1 receptor; 0.143 µM at Human NPY5 receptor.

For `O=C(CN1CCOCC1)Nc1ccc(C2CCCCC2)cc1` [Compound 362, N-(4-Cyclohexyl-phenyl)-2-morpholin-4-yl-acetamide, reference compound], the IC50 on Rat NPY5 receptor was 0.115 µM; at Human NPY1 receptor, over 5 µM; at human Y4/PP1 receptor it was over 5 µM; at Human NPY5 receptor it was 0.2 µM.

In the case of `O=C(CN1CCC(n2c(=O)[nH]c3ccccc32)CC1)Nc1cccc(-c2ccccc2)c1` [Compound 323, N-Biphenyl-3-yl-2-[4-(2-oxo-2,3-dihydro-benzoimidazol-1-yl)-piperidin-1 yl]-acetamide; hydrochloride], the IC50 on Rat NPY5 receptor was 0.026 µM; on Human NPY1 receptor, over 5 µM; at human Y4/PP1 receptor, over 5 µM; at Human NPY5 receptor it was 0.026 µM.

`O=C(CN1CCC(n2c(=O)[nH]c3ccccc32)CC1)Nc1ccc(Nc2ccccc2)cc1` [Compound 337, 2-[4-(2-Oxo-2,3-dihydro-benzoimidazol-1-yl)-piperidin-1-yl]-N-(4-phenylamino-phenyl)-acetamide, reference compound]: the IC50 was 0.108 µM at Rat NPY5 receptor, over 5 µM at Human NPY1 receptor, over 5 µM on human Y4/PP1 receptor and 0.096 µM on Human NPY5 receptor.

As for `O=C(CN1CCC(n2c(=O)[nH]c3ccccc32)CC1)NCc1ccc(F)cc1F` [Compound 332, N-(2,4-Difluoro-benzyl)-2-[4-2(oxo-2,3-dihydro-benzoimidazol-1-yl)-piperidin-1-yl]-acetamide, reference compound], the 50% inhibitory concentration (IC50) on Rat NPY5 receptor is 0.53 µM; on Human NPY1 receptor, over 5 µM; at Y2 receptor, over 5 µM; at Human NPY5 receptor it was 0.61 µM.

Turning to `COc1ccc(-c2ccccc2)cc1NC(=O)CN1CCC(n2c(=O)[nH]c3ccccc32)CC1` [Compound 328, N-(4-Methoxy-biphenyl-3-yl)-2-[4-(2-oxo-2,3-dihydro-benzoimidazol-1-yl)-piperidin-1-yl]-acetamide; hydrochloride], the 50% inhibitory concentration (IC50) at Y2 receptor and on human Y4/PP1 receptor was over 5 µM throughout.

As to `O=C(CNCCCn1c(=O)[nH]c2ccccc21)Nc1ccc(C2CCCCC2)cc1` [Compound 276, N-(4-Cyclohexyl-phenyl)-2-[3-(2-oxo-2,3-dihydro-benzoimidazol-1-yl)-propylamino]-acetamide], the concentration for half-maximal inhibition (IC50) is over 5 µM at Y2 receptor, over 5 µM at human Y4/PP1 receptor and 1.1 µM on Human NPY5 receptor.

For `O=C(CN1CCC(n2c(=O)[nH]c3ccccc32)CC1)Nc1cccc2ccc(O)cc12` [Compound 340, reference compound], the half-inhibitory concentration (IC50) is over 5 µM on Human NPY1 receptor, over 5 µM on Y2 receptor, over 5 µM on human Y4/PP1 receptor and 0.227 µM at Human NPY5 receptor.

As to `O=C(CN1CCC(n2c(=O)[nH]c3ccccc32)CC1)NC1CC2CCC1C2` (centres unmarked) [Compound 326, N-Bicyclo[2.2.1]hept-2-yl-2-[4-(2-oxo-2,3-dihydro-benzoimidazol-1-yl)-piperidin-1-yl] acetamide], the IC50 at Y2 receptor and at human Y4/PP1 receptor was over 5 µM each time.

As to `Nc1ccccc1NC(=O)CN1CCC(n2c(=O)[nH]c3ccccc32)CC1` [Compound 331, N-(2-Amino-phenyl)-2-[4-(2-oxo-2,3-dihydro-benzoimidazol-1-yl)-piperidin-1-yl]-acetamide, reference compound], the 50% inhibitory concentration (IC50) on Y2 receptor and on human Y4/PP1 receptor was over 5 µM in each case.

The term IC50 denotes the midpoint of a concentration-inhibition curve.
